Experimental data: ChEMBL document CHEMBL1127402, “Orally active non-peptide fibrinogen receptor (GpIIb/IIIa) antagonists: identification of 4-[4-[4-(aminoiminomethyl)phenyl]-1-piperazinyl]-1-piperidineacetic acid as a long-acting, broad-spectrum antithrombotic agent” (J Med Chem, 1994)
pIC50: −log10 of the molar value.

Species on record: Homo sapiens
Test: Inhibition of 10 uM ADP induced aggregation in human gel filtered platelets in the presence fibrinogen and aspirin.
Assay type: functional

Question: With N=C(N)c1ccc(N2CCN(C3CCN(CC(=O)O)CC3)CC2)cc1 as the molecule, how does the pIC50 read?
Answer: 7.43

Question: How did the pIC50 turn out when CCN(CC)CCO[C@H]1CC[C@H]([C@H]2CC[C@](O)(CC(=O)O)CC2)CC1 was run?
Answer: 4.27

Question: How did the pIC50 turn out when N=C(N)c1ccc(-c2ccc(N3CC[N+](CC(=O)O)(Cc4ccccc4)CC3)cc2)cc1 was run?
Answer: 7.51

Question: N/C(=N\CC(F)(F)F)c1ccc(-c2ccc(C3=CCC(O)(CC(=O)O)CC3)cc2)cc1 (centres undefined) was tested. Which pIC50 did it give?
Answer: 6.68
